The values below come from US20260207459A1, “SUGARCANE DERIVED SEMI-SYNTHETIC COSMETIC INGREDIENTS, METHODS OF PRODUCTION THEREOF, AND PERSONAL CARE PRODUCTS DERIVED THEREFROM” (AMYRIS, INC., priority 2023, published 2026).

A short description of data set [1]: In vitro skin permeation, Franz diffusion cell system. The following applies: for Total accumulated dose passed through the skin into the reservoir / Total accumulated dose in Dermis / Total accumulated dose in Epidermis: 1.0 wt % in squalane, 5 μl, nominal 90.91 μg/cm^2; for Total accumulated dose in Dermis / Total accumulated dose in Epidermis: measured at 24 hours; for penetration to the dermis compared with THDA: 24 hour time point, cadaver skin. Type of data set: in vitro ADME, human. The method, then: The rate and extent of in vitro skin permeation of compounds tetrahexydecyl ascorbate (THDA, shown below), di(hexahydrofarnesyl) ascorbate (Compound (II-A)), tri(hexahydrofarnesyl) ascorbate (Compound (II-B)), and tetra(hexahydrofamesyl) ascorbate (Compound (II-C)) was measured into and through cadaver skin using a Franz diffusion cell system. THDA is a Vitamin C ester commonly used in cosmetic formulations.
Flux was measured over a period of 24 hours after application of the formulations. At the end of the 24 hour study, the skin was washed, tapestripped and split into epidermal and dermal compartments. The compounds were then extracted from the skin compartments and the compound concentration was measured in these compartments along with the receptor fluid aliquots. The formulations were chosen to determine the effect of the formulation composition and compound concentration on the rate of delivery of the compounds into and through the skin. In vitro skin permeation measurements with Franz-type diffusion cells provide data that is informative relative to in vivo performance.
To prepare the formulations, the compounds were weighed in a glass vial into which the squalane was added. The ending solution was then vortexed for 1 minute, followed by sonication for 30 minutes.
Intact human cadaver skin was purchased from Science Care. The skin tissue was dermatomed by the tissue bank to a thickness of some 250-500 μm and shipped frozen on dry ice. Upon receipt of the donor skin, the skin pieces were stored at −20° C. until used. Prior to use, the skin pieces were removed from the freezer and allowed to thaw fully at ambient temperature.
The following equipment was used during the course of the study: • 1.) Diffusion cells. 24 diffusion cells with 3.3 ml receptor volume and a […] receptor fluid exposure surface area. • 2.) Stirring Dry Block Heaters. Reacti-Therm #18823 stirring dry block heaters were used to maintain the receptor fluid at 32±0.5° C. with constant stirring throughout the study. • 3.) The analysis was carried out with an Agilent 1260 HPLC with a G6120 MS detector and a G4212B diode array detector.
After the analytical testing was complete, the samples were analyzed using Chemstation software. The areas under the curve (“AUCs”) of the compound peaks were recorded and converted to jig/ml values using a calibration curve developed from the calibration standards' AUC values and known concentration values. The concentrations were then multiplied by the receptor volume (3.3 mL) and divided by the surface area of the skin exposed to the receptor fluid (0.55 cm^2) for an end cumulative amount in μg/cm^2.
For receptor fluid time points greater than 4 hrs, this μg/cm^2 value was corrected for the sample aliquot volumes which were removed to compensate for the dilution caused by replacing the sample volume with fresh buffer solution. As an example, for the second time point at 8 hrs, the dilution factor (300 μl aliquot/3.3 ml receptor volume or 1/11) is multiplied by the g/cm^2 value calculated for the 4 hr time point, the result of which is then added to the μg/cm^2 concentration which is calculated using the 8 hr AUC value.
The receptor fluid consisted of phosphate buffered saline at pH 7.4, sourced from Quality Biologicals, with 0.01 wt % NaN3 (added as a preservative), and lwt % Brij 020 (added as a solubilizing agent). The solubility of the compounds in the receptor fluid was determined to be sufficient to maintain sink conditions throughout the study. After mixing the receptor fluid, the receptor fluid was degassed, filtered through a ZapCap CR 0.2 μm membrane under vacuum, and stirred for an additional 20 minutes under vacuum.
Glass FDCs with a 3.3 ml receiver volume and 0.55 cm^2 diffusional area were used. Once the skin was defrosted and washed as described above the FDCs were prepared as follows: • 1. The receptor wells were filled with degassed receptor fluid using a pipette. • 2. […]

Data set [2] in a line: Viscosity (capillary viscometer / rheometer). Type of data set: physicochemical. The following applies: for Viscosity: at 25° C., ARES G2 rheometer. The method, then:
The viscosity, gloss, surface tension, and wetting were also calculated for farnesyl HH-farnesoate (Compound (I-C)) and the results are shown in Table 4. The properties of Table 4 were determined as follows: Measurement of dynamic viscosity using rheometer: Using a ARES G2 rheometer, the viscosity of the samples were measured using 25 mm plate clamps with a gap size about 0.5 mm, strain 1%, frequency range 1-500 rad/s, and a temperature of about 25° C.

The nature of data set [3]: Surface tension by pendant drop. The class given is physicochemical. To be noted: for surface tension (comparison in words): pendant drop shape analysis, FIG. 4; for Surface tension: Kruss DSA 100, pendant drop. The method, then:
The surface tension of a material in beauty and personal care (B&PC) ingredients accounts for many of the sensory attributes. The lower the surface tension of a material the better is the material's spreadability, slip, glide, and lubricity.
(§1) Example 9: Wetting on Hydrophobic-PTFE and Hydrophilic-Glass Slide Substrates by Static Contact Angle and Surface Tension by Pendant Drop Shape Analysis
(§2) The wetting values (on hydrophobic-PTFE and on hydrophilic-glass slides) were measured and compared for amodimethicone, LEX FEEL (diheptyl succinate), non-redistilled HDD, distilled HDD, PROTOL (mineral oil), RUDOL (mineral oil), ERVOL (mineral oil), and squalane. […] The lower surface tension of HDD can be translated to better spreading and glide in formulations and position it comparably with mineral oils with similar viscosities and LEX FEEL 350.
(§3) Measurement of surface tension of liquids: A Kruss DSA 100 was employed using the pendant drop method. Prior to the measurement, surface tension of the water was tested as a standard with an expected surface tension of 72 mN/m at 25° C. Then, a drop of the tested liquid was pushed through a 0.514 mm needle of a micro syringe and the surface tension was calculated using inbuilt software. The result of the measurement is an average of at least 3 measurements. Static contact angle measurement (wetting): To measure the contact angle, a Kriss DSA 100 and the sessile drop method were used. A glass substrate was used for the measurements. To measure the contact angle on the substrate, a single drop was deposited onto the substrate from a 0.514 mm needle of a micro syringe. Then, drop shape and contact angle were analyzed using inbuilt software. The result of the measurement was the average of at least 3 measurements. To ensure that the substrate is prepared well, it was cleaned with non-polar hexane, THF, and polar acetone. To ensure that the glass substrate was clean, a drop of water was deposited on its surface. Gloss measurement: To measure the gloss, 2 mL of material was drawn downed on a glass substrate. Then glass was placed over a black matte surface and gloss was measured with a BYK micro-TRI-gloss glossmeter.

Data set [4] is described as follows: Static contact angle (wetting) on glass / PTFE. The following applies: for Water contact angle: static contact angle on glass. The class given is physicochemical. As to the method: Static water contact angle is another indication of material spreading and wetting.
as §1, §2, §3

Data set [5] can be described thus: Gloss measurement (glossmeter). The class given is physicochemical. The method, then:
Gloss is a very desirable property in B&PC products. Gloss was measured at 20 deg.
Tested dimethicones have the lowest gloss.
as §3

With `CC(C)CCCC(C)CCCC(C)CC(=O)OC[C@H](OC(=O)CC(C)CCCC(C)CCCC(C)C)C1OC(=O)C(OC(=O)CC(C)CCCC(C)CCCC(C)C)=C1OC(=O)CC(C)CCCC(C)CCCC(C)C` (stereo partly drawn) [Compound (II-C), 2-((1S)-1,2-bis((3,7,11-trimethyldodecanoyl)oxy)ethyl)-5-oxo-2,5-dihydrofuran-3,4-diyl bis(3,7,11-trimethyldodecanoate)], the “Total accumulated dose passed through the skin into the reservoir” value in data set [1] (4 hrs) was determined as 0.05 μg/cm^2; in data set [1] (8 hrs), 0.03 μg/cm^2; in data set [1] (24 hrs), 0.04 μg/cm^2. In addition, the “Total accumulated dose in Dermis” value in data set [1] is 0.01 μg/cm^2. The “Total accumulated dose in Epidermis” value in data set [1] was found to be 1.02 μg/cm^2.

Take “hexahydrofarnesene dimer [HDD Glycotech]”: in data set [2], the viscosity by rheology was 68.2. In addition, the “surface tension (comparison in words)” value in data set [3] (listed as Non-redistilled HDD) is “highest values of surface tension”.

Consider `CC(C)CCCC(C)CCCC(C)CC(=O)OC[C@H](OC(=O)CC(C)CCCC(C)CCCC(C)C)C1OC(=O)C(O)=C1O` (stereo partly drawn) [Compound (II-A), (1S)-1-(3,4-dihydroxy-5-oxo-2,5-dihydrofuran-2-yl)ethane-1,2-diyl bis(3,7,11-trimethyldodecanoate)], for which the “Total accumulated dose passed through the skin into the reservoir” value in data set [1] (4 hrs) is given as 0.17 μg/cm^2. Also, the “Total accumulated dose passed through the skin into the reservoir” value in data set [1] (8 hrs) was determined as 0.18 μg/cm^2. Also, in data set [1], the “penetration to the dermis compared with THDA” value is recorded as “better penetration to the dermis”, the “Total accumulated dose in Dermis” value was 0.85 μg/cm^2 and the “Total accumulated dose in Epidermis” value was 9.28 μg/cm^2. Also, the “Total accumulated dose passed through the skin into the reservoir” value in data set [1] (24 hrs) stood at 0.20 μg/cm^2.

Turning to `CC(C)CCCC(C)CCCC(C)CCCCC(C)CCCC(C)CCCC(C)C` (centres unmarked) [Squalane, squalane, reference compound], in data set [2], the “Viscosity @20 C., cP” value is on record as 23.3 cP. The “Surface tension, mN/m” value in data set [3] is 26.1 mN/m. Besides, the Water contact angle in data set [4] was determined as 30.9 °. For the same molecule, the “gloss value (comparison in words)” value in data set [5] is “somewhat lower gloss value”. The molecule further showed a Gloss in data set [5] (measured at 20 deg) of 65.7.

On to `CCCCCCCCC(CCCCCC)C(=O)OCC(OC(=O)C(CCCCCC)CCCCCCCC)C1OC(=O)C(OC(=O)C(CCCCCC)CCCCCCCC)=C1OC(=O)C(CCCCCC)CCCCCCCC` (centres unmarked) [Tetrahexydecyl ascorbate, tetrahexydecyl ascorbate, reference compound], for which the “Total accumulated dose passed through the skin into the reservoir” value in data set [1] (4 hrs), in data set [1] (8 hrs) and in data set [1] (24 hrs) was 0.00 μg/cm^2 in each case. Further, the “Total accumulated dose in Dermis” value in data set [1] is on record as 0.18 μg/cm^2. For the same molecule, in data set [1], the “Total accumulated dose in Epidermis” value is 25.78 μg/cm^2.

Turning to `CC(C)CCCC(C)CCCC(C)CCOC(=O)CC(C)CCCC(C)CCCC(C)C` (centres unmarked) [Compound (I-C), 3,7,11-trimethyldodecyl 3,7,11-trimethyldodecanoate], the Viscosity in data set [2] is 30 ± 10 cP at 25 °C; in data set [2] (listed as Compound I-C), 30±10 cP. In addition, the Surface tension in data set [3] was found to be 27.6 ± 0.2 mN/m; in data set [3] (listed as Compound I-C), 27.6±0.2 mN/m. In data set [4] (sessile drop on glass substrate), the “Wetting (static contact angle)” value amounted to 18.5°. This molecule gave a Gloss in data set [5] (BYK micro-TRI-gloss glossmeter, drawn down on glass) of 69.4 ± 2.7.

With `CC(C)CCCC(C)CCCC(C)CC(=O)OC[C@H](OC(=O)CC(C)CCCC(C)CCCC(C)C)C1OC(=O)C(O)=C1OC(=O)CC(C)CCCC(C)CCCC(C)C` (stereo partly drawn) [Compound (II-B), (1S)-1-(4-hydroxy-5-oxo-3-((3,7,11-trimethyldodecanoyl)oxy)-2,5-dihydrofuran-2-yl)ethane-1,2-diyl bis(3,7,11-trimethyldodecanoate)], the “Total accumulated dose passed through the skin into the reservoir” value in data set [1] (4 hrs), in data set [1] (8 hrs) and in data set [1] (24 hrs) was 0.00 μg/cm^2 in each case. In addition, the “penetration to the dermis compared with THDA” value in data set [1] was “better penetration to the dermis”. For the same molecule, the “Total accumulated dose in Dermis” value in data set [1] turned out to be 1.37 μg/cm^2. The “Total accumulated dose in Epidermis” value in data set [1] was 4.41 μg/cm^2.

As to hexahydrofarnesene dimer [HDD], in data set [2], the “Viscosity @20 C., cP” value stood at 61.5 cP and the viscosity by rheology is listed as 61.5. Moreover, in data set [3], the “Surface tension, mN/m” value is listed as 24.5 mN/m. Moreover, the “surface tension (comparison in words)” value in data set [3] (listed as Distilled HDD) was “lower surface tension value”. The Water contact angle in data set [4] turned out to be 19.8 °. For the same molecule, in data set [5] (measured at 20 deg), the Gloss was found to be 70.6.
